Results from US12581252B2, “Substituted pyrrolo[3,4-b]pyridines as PI3K-α inhibitors” (Relay Therapeutics, Inc., priority 2020, dated 2026).

Molecular target: H1047R PIK3CA enzyme (Homo sapiens, UniProt P42336, H1047R)
Assay: ADP-Glo Biochemical PIK3CA Kinase Assay
Method: Compounds to be assayed were plated in 16 doses of 1:2 serial dilutions (20 nL volume each well) on a 1536-well plate, and the plate warmed to room temperature. […] To the well was added 1 μL of 200 μM ATP and 20 μM of diC8-PIP2 in Substrate Assay Buffer (50 mM HEPES pH7.4, 50 mM NaCl, 5 mM DTT and 0.03% CHAPS) to start the reaction, and the plate was shaken for 10 seconds, then spun briefly at 1500 rpm, and then incubated for 60 minutes at room temperature. The reaction was stopped by adding 2 μL of ADP-Glo reagent (Promega), and spinning briefly at 1500 rpm, and then incubating for 40 minutes. ADP-Glo Detection reagent (Promega) was added and the plate spun briefly at 1500 rpm, then incubated for 30 minutes.

H1047R PIK3CA enzyme, sequence (P42336 whole entry H1047R): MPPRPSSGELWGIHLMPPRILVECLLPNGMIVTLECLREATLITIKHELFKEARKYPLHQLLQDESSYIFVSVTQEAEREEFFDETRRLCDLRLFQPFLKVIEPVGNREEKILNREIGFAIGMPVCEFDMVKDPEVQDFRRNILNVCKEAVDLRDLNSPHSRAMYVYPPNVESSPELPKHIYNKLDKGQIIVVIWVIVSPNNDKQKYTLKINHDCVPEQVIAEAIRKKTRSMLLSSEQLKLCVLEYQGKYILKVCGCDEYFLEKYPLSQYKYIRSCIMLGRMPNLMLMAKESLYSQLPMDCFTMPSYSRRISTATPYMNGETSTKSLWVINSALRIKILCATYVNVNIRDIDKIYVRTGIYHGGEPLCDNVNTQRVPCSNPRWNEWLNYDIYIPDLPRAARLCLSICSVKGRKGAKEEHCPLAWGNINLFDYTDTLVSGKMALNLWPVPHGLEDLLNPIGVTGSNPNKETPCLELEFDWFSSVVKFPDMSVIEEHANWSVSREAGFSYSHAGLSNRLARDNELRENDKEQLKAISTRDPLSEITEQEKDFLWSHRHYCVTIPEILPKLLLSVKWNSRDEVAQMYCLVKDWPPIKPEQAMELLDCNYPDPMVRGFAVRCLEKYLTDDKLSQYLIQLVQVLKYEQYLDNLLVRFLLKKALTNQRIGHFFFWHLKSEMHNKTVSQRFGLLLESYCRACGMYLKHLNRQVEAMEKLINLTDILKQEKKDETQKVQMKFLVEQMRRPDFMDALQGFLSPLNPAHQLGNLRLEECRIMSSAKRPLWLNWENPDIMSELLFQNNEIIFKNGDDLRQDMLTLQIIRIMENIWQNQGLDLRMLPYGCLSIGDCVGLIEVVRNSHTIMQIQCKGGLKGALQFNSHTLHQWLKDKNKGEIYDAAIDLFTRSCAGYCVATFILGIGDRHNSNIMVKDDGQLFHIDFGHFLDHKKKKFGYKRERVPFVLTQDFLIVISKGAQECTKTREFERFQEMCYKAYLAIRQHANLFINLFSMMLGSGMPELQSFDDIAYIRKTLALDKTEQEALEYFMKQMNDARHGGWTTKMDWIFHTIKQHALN
H1047R PIK3CA enzyme, sequence (P27986 whole entry partner): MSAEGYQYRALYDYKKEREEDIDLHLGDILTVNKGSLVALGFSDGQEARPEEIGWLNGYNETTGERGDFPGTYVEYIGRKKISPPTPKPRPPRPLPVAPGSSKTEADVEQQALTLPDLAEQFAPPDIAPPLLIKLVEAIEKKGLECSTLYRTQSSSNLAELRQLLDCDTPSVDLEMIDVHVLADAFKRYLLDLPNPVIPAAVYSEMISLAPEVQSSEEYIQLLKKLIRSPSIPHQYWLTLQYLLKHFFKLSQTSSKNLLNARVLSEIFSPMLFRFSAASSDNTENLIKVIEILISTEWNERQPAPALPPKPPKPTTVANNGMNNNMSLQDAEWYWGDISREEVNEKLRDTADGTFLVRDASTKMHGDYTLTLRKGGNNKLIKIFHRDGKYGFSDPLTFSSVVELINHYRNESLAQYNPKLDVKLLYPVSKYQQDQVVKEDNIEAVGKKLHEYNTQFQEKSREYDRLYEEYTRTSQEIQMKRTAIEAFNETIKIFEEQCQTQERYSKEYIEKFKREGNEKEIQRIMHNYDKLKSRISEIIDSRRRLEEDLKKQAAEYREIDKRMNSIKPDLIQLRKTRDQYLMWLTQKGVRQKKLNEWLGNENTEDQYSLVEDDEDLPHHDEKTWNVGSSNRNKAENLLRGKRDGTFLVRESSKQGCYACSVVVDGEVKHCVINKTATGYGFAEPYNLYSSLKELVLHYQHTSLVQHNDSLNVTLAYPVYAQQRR

Compound	IC50 [µM]
O=C(Nc1cc(C2(O)CC2)cc2c1C(c1cc(F)ccc1Cl)NC2=O)c1cc(F)cc(C(F)(F)F)c1 (stereo not shown) [Compound I-374, N-[3-(2-chloro-5-fluorophenyl)-6-(1-hydroxycyclopropyl)-1-oxo-2,3-dihydro-1H-isoindol-4-yl]-3-fluoro-5-(trifluoromethyl)benzamide]	≤ 0.1
CN1CCCC[C@@H]1[C@@H]1NC(=O)c2cccc(NC(=O)c3cc(F)cc(C(F)(F)F)c3)c21 (racemic) [Compound I-1713]	10 to 100
O=C(Nc1cc(-c2cnn3ccnc3c2)cc2c1C(c1cc(F)ccc1Cl)NC2=O)c1cc(F)cc(C(F)(F)F)c1 (stereo not shown) [Compound I-1504]	≤ 0.1
O=C1N[C@@H](c2cc(F)ccc2Cl)c2c(NC(=O)N3C[C@H](O)C[C@@H]3CC(F)(F)F)cccc21 (racemic) [Compound I-2162]	1 to 10
O=C1C[C@H](c2cc(NC(=O)c3cc(F)cc(C(F)(F)F)c3)c3c(c2)C(=O)N[C@H]3c2cc(F)ccc2Cl)CN1 (single isomer, unassigned) [Compound I-1709]	≤ 0.1
Cn1ncc(Br)c1C(=O)Nc1cccc2c1C(c1cc(F)ccc1Cl)NC2=O (stereo not shown) [Compound I-583]	10 to 100
NC(=O)CC(=O)Nc1cc(-c2ccc3ncnn3c2)cc2c1C(c1cc(F)ccc1Cl)NC2=O (stereo not shown) [Compound I-1983]	10 to 100
O=C(Nc1cc(-c2cnn(S(=O)(=O)C(F)F)c2)cc2c1C(c1cc(F)ccc1Cl)NC2=O)c1cc(F)cc(C(F)(F)F)c1 (stereo not shown) [Compound I-2055]	≤ 0.1
C[C@]1(O)CN(C(=O)Nc2cccc3c2[C@@H](c2cc(F)ccc2Cl)NC3=O)c2ccccc21 (single isomer, unassigned) [Compound I-2203]	1 to 10
O=C1N[C@@H](c2cc(F)ccc2Cl)c2c(NC(=O)N3C[C@@](O)(C(F)F)c4cc(F)ccc43)cc(F)cc21 (single isomer, unassigned) [Compound I-2633]	1 to 10
O=C(Nc1cc(/N=C2/N[C@@H](C(F)(F)F)CO2)cc2c1[C@@H](c1cc(F)ccc1Cl)NC2=O)c1cc(F)cc(C(F)(F)F)c1 (single isomer, unassigned) [Compound I-2390]	1 to 10
O=C(Nc1cc(-c2ccc3nc(Cl)cn3c2)cc2c1C(c1cc(F)ccc1Cl)NC2=O)c1cc(F)cc(C(F)(F)F)c1 (stereo not shown) [Compound I-1696]	≤ 0.1
O=C(Nc1cc(Br)cc2c1C(c1cc(F)ccc1Cl)NC2=O)NC12CC3CC(C1)CC(C(F)(F)F)(C3)C2 (stereo not shown) [Compound I-1256]	0.1 to 0.5
O=C1NC(c2cc(F)ccc2Cl)c2c(CC(=O)N3CCc4ccccc43)cc(-c3ccc4ncnn4c3)cc21 (stereo not shown) [Compound I-1914]	10 to 100
O=C1NC(c2cc(F)ccc2Cl)c2c(NC(=O)N3CCC(C4CC4)C3)cccc21 (stereo not shown) [Compound I-2398]	10 to 100
O=C1NC(c2cc(F)ccc2Cl)c2c(NC(=O)N3CCc4ccccc4CC3)cccc21 (stereo not shown) [Compound I-2308]	10 to 100
O=C1NC(c2cc(F)ccc2Cl)c2c(NC(=O)c3nsc4ccccc34)cc(CO)cc21 (stereo not shown) [Compound I-154]	≤ 0.1
O=C(Nc1cc(NC2CC(F)(F)C2)nc2c1C(c1cc(F)ccc1Cl)NC2=O)c1cc(F)cc(C(F)(F)F)c1 (stereo not shown) [Compound I-284]	≤ 0.1
O=C(Nc1cccc2c1[C@@H](NC1CCCC1)NC2=O)c1cc(F)cc(C(F)(F)F)c1 (single isomer, unassigned) [Compound I-2249]	10 to 100
O=C(Nc1cc(-c2ccn3ncnc3c2F)cc2c1[C@H](c1cc(F)ccc1Cl)NC2=O)c1cc(F)cc(C(F)(F)F)c1 [Compound I-1765]	≤ 0.1
O=C1N[C@@H](c2cc(F)ccc2Cl)c2c(NC(=O)N3C[C@](O)(C(F)(F)F)c4cc(F)ccc43)cc(-n3ccccc3=O)cc21 (single isomer, unassigned) [Compound I-2529]	1 to 10
CC1(O)CN(c2cc(NC(=O)c3cc(F)cc(C(F)(F)F)c3)c3c(n2)C(=O)NC3c2cc(F)ccc2Cl)C1 (stereo not shown) [Compound I-322]	0.1 to 0.5
CN(C)C(=O)c1cc(-c2ccc3ncnn3c2)cc2c1C(c1cc(F)ccc1Cl)NC2=O (stereo not shown) [Compound I-1857]	10 to 100
O=C1NC(c2cc(F)ccc2Cl)c2c(NC(=O)C3CCC(O)(C(F)(F)F)CC3)cccc21 (stereo not shown) [Compound I-2155]	10 to 100
N#C[C@H]1C[C@@H](c2cc(NC(=O)c3cc(F)cc(C(F)(F)F)c3)c3c(c2)C(=O)N[C@H]3c2cc(F)ccc2Cl)C1 (single isomer, unassigned) [Compound I-1328]	0.1 to 0.5
Cn1cc(-c2ccc(Cl)c(C3NC(=O)c4cccc(NC(=O)c5cc(F)cc(C(F)(F)F)c5)c43)c2)cn1 (stereo not shown) [Compound I-489]	10 to 100
O=C1N[C@@H](c2cc(F)ccc2Cl)c2c(NC(=O)N3C[C@@](O)(C(F)(F)F)c4cc(F)ccc43)cc(-n3ccccc3=O)cc21 (single isomer, unassigned) [Compound I-2530]	1 to 10
O=C1CCc2cc(F)cc(C(=O)Nc3cc(Br)cc4c3C(c3cc(F)ccc3Cl)NC4=O)c2N1 (stereo not shown) [Compound I-1546]	10 to 100

Compound	IC50 [µM]
O=C(Nc1cc(C2=CCOC2)cc2c1C(c1cc(F)ccc1Cl)NC2=O)c1cc(F)cc(C(F)(F)F)c1 (stereo not shown) [Compound I-643]	≤ 0.1
O=C(Nc1cc(Br)cc2c1C(c1cc(F)ccc1Cl)NC2=O)c1ccc(F)c(OC(F)(F)F)c1 (stereo not shown) [Compound I-516]	0.1 to 0.5
COc1cc(C(=O)Nc2cc(N)cc3c2C(c2cc(F)ccc2C(F)F)NC3=O)cc(F)c1N (stereo not shown) [Compound I-474]	10 to 100
O=C(Nc1cc(Br)cc2c1C(c1cc(F)ccc1Cl)NC2=O)NC1(C(F)(F)F)CC1 (stereo not shown) [Compound I-1294]	1 to 10
O=C1N[C@@H](c2cc(F)ccc2Cl)c2c(NC(=O)N3C[C@](O)(C(F)(F)F)c4cc(F)ccc43)ccnc21 (single isomer, unassigned) [Compound I-2701]	1 to 10
O=C(Nc1cc(-c2ccc(C(F)F)nc2)cc2c1C(c1cc(F)ccc1Cl)NC2=O)c1cc(F)cc(C(F)(F)F)c1 (stereo not shown) [Compound I-1932]	0.1 to 0.5
Cc1ccccc1C1NC(=O)c2cccc(NC(=O)c3ncn4ccc(Cl)cc34)c21 (stereo not shown) [Compound I-258, 7-chloro-N-[3-(2-methylphenyl)-1-oxo-2,3-dihydro-1H-isoindol-4-yl]imidazo[1,5-a]pyridine-1-carboxamide]	1 to 10
CC(C)(O)C(O)c1cc(NC(=O)c2cc(F)cc(C(F)(F)F)c2)c2c(c1)C(=O)NC2c1cc(F)ccc1Cl (racemic) [Compound I-1307]	0.1 to 0.5
O=C(Nc1cccc2c1C(C1CCCNC1)NC2=O)c1cc(F)cc(C(F)(F)F)c1 (stereo not shown) [Compound I-1747]	10 to 100
O=C1N[C@@H](c2cc(F)ccc2Cl)c2c(NC(=O)N3C[C@@](O)(C(F)(F)F)c4cc(F)ccc43)cc(F)cc21 (single isomer, unassigned) [Compound I-2628]	1 to 10
Cn1c(=O)[nH]c2ccc(-c3cc(NC(=O)c4cc(F)cc(C(F)(F)F)c4)c4c(c3)C(=O)NC4c3cc(F)ccc3Cl)cc21 (stereo not shown) [Compound I-1044]	≤ 0.1
CC1(COc2cc(NC(=O)c3cc(F)cc(C(F)(F)F)c3)c3c(c2)C(=O)NC3c2cc(F)ccc2Cl)COC1 (stereo not shown) [Compound I-748]	≤ 0.1
O=C1N[C@H](c2cc(F)ccc2Cl)c2c(NC(=O)N3C[C@](O)(C(F)(F)F)c4cc(F)ccc43)cc(C3COC3)cc21 (single isomer, unassigned) [Compound I-2653]	10 to 100
O=C1NC(c2cc(F)ccc2Cl)c2c(NC(=S)c3cc(F)cc(C(F)(F)F)c3)cccc21 (stereo not shown) [Compound I-753]	0.5 to 1
O=C(Nc1cc(-c2cccnc2)nc2c1C(c1cc(F)ccc1Cl)NC2=O)c1cc(F)cc(Cl)c1 (stereo not shown) [Compound I-455]	0.1 to 0.5
Cc1ccccc1C1NC(=O)c2cccc(NC(=O)c3cc(=O)[nH]c4ccccc34)c21 (stereo not shown) [Compound I-30]	10 to 100
O=C1NC(c2cc(F)ccc2Cl)c2c(NC(=O)N3CCc4ccccc4C3)cccc21 (stereo not shown) [Compound I-2307]	10 to 100
Cc1ccccc1C1NC(=O)c2cc(CCO)cc(NC(=O)c3csc4ccccc34)c21 (stereo not shown) [Compound I-181, N-[6-(2-Hydroxyethyl)-3-(2-methylphenyl)-1-oxo-2,3-dihydro-1H-isoindol-4-yl]-1-benzothiophene-3-carboxamide]	≤ 0.1
CN1C[C@@H](COc2cc(NC(=O)c3cc(F)cc(C(F)(F)F)c3)c3c(c2)C(=O)N[C@H]3c2cc(F)ccc2Cl)CC1=O (single isomer, unassigned) [Compound I-1524]	10 to 100
O=C1NC(c2cc(F)ccc2Cl)c2c(NC(=O)c3cc(C(F)(F)F)cc(F)c3C3(O)COC3)cccc21 (stereo not shown) [Compound I-1114]	1 to 10
N#C/N=C(\Nc1ccc(F)cc1C(F)(F)F)Nc1cc(Br)cc2c1C(c1cc(F)ccc1Cl)NC2=O (stereo not shown) [Compound I-1502]	1 to 10
O=C1N[C@H](c2cc(F)ccc2Cl)c2c(NC(=O)N3C[C@@](O)(C(F)(F)F)c4cc(F)ccc43)cc(Cl)cc21 (single isomer, unassigned) [Compound I-2510]	1 to 10
O=C1NC(c2ccncc2Cl)c2c(NC(=O)c3csc4ccccc34)cccc21 (stereo not shown) [Compound I-101]	1 to 10
O=C1N[C@H](c2cc(F)ccc2Cl)c2c(NC(=O)N3C[C@](O)(C(F)(F)F)c4cc(F)ccc43)ccc(-n3cccn3)c21 (single isomer, unassigned) [Compound I-2494]	1 to 10
O=C(Nc1cc(-n2cncc2F)cc2c1C(c1cc(F)ccc1Cl)NC2=O)c1cc(F)cc(C(F)(F)F)c1 (stereo not shown) [Compound I-1128]	≤ 0.1
Cc1ccccc1C1NC(=O)c2cccc(NC(=O)c3c[nH]c(=O)c(F)c3)c21 (stereo not shown) [Compound I-86]	10 to 100
Cc1ccccc1C1NC(=O)c2cccc(NC(=O)C34CCC(CC3)CC4)c21 (stereo not shown) [Compound I-179, N-(1-Oxo-3-(o-tolyl)isoindolin-4-yl)bicyclo[2.2.2]octane-1-carboxamide]	1 to 10
